Laboratory results from ChEMBL document CHEMBL4190352, “Continued SAR exploration of 1,2,4-thiadiazole-containing scaffolds in the design of free fatty acid receptor 1 (GPR40) agonists” (Eur J Med Chem, 2017).
Calls of active or inactive are those of the source. No cut-off for these calls is given here.

Key:
Format in all cases: functional, cell-based
[1] = target: T1, Free fatty acid receptor 2 (Homo sapiens) (UniProt O15552); test: Agonist activity at GPR43/FFA2 (unknown origin) expressed in CHO cells assessed as increase in calcium flux at 10 uM by Fluo-8 AM dye based FLIPR method
T1 sequence (whole entry): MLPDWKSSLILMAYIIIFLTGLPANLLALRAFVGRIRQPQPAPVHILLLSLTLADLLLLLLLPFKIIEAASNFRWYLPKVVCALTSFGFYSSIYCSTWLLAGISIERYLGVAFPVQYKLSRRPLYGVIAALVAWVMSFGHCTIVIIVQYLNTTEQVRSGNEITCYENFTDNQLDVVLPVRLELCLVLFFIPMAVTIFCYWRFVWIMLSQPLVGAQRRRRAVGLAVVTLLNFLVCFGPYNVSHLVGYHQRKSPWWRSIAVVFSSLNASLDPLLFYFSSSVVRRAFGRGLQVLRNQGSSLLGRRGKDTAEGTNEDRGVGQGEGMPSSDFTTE

[2] = target: T2, Free fatty acid receptor 4 (Homo sapiens) (UniProt Q5NUL3); test: Agonist activity at GPR120/FFA4 (unknown origin) expressed in CHO cells assessed as increase in calcium flux at 10 uM by Fluo-8 AM dye based FLIPR method
T2 sequence (whole entry): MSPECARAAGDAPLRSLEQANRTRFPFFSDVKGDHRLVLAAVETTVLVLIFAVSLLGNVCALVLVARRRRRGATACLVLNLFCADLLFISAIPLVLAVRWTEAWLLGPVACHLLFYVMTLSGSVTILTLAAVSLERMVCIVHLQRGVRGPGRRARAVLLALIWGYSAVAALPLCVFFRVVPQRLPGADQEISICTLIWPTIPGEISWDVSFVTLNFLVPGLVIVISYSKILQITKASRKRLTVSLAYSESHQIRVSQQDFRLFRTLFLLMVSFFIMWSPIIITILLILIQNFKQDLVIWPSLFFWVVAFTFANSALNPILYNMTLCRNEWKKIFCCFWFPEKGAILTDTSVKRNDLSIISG

[3] = target: T3, Free fatty acid receptor 1 (Homo sapiens, UniProt O14842); test: Agonist activity at human GPR40/FFA1 expressed in CHO cells assessed as increase in calcium flux at 1 uM by Fluo-8 AM dye based FLIPR method relative to 10 uM GW9508
[4] = target: T4, Free fatty acid receptor 3 (Homo sapiens) (UniProt O14843); test: Agonist activity at GPR41/FFA3 (unknown origin) expressed in CHO cells assessed as increase in calcium flux at 10 uM by Fluo-8 AM dye based FLIPR method
T4 sequence (whole entry): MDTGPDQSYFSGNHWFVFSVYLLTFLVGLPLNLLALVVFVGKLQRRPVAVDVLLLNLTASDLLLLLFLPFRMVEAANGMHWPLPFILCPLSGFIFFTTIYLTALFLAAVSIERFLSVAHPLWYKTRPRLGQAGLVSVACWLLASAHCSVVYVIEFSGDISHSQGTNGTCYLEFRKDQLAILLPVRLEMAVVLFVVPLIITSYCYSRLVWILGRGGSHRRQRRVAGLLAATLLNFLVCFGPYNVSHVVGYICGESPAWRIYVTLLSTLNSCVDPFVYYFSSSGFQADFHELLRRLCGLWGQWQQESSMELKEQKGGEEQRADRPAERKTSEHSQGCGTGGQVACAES

[5] = target: T3, Free fatty acid receptor 1; test: Agonist activity at human GPR40/FFA1 expressed in CHO cells assessed as increase in calcium flux at 1 uM by Fluo-8 AM dye based FLIPR method

T3 sequence (O14842 whole entry): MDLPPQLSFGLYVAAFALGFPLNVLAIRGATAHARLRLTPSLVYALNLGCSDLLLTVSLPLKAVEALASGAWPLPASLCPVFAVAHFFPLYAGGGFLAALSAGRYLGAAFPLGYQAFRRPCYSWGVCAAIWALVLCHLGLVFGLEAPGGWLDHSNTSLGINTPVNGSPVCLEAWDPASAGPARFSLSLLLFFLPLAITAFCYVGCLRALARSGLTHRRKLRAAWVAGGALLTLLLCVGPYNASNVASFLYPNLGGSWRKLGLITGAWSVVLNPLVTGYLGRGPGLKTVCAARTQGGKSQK

SMILES	Activity [1]	Activity [2]	Activity [3]	Activity [4]	EC50 [5]
O=C(O)COc1ccc(NC(=O)c2nnc(C(=O)Nc3ccc(Br)cc3)s2)cc1	–	–	5.9%	–	> 10 µM
O=C(O)COc1ccc(NC(=O)c2nnc(C(=O)Nc3ccc(F)cc3F)s2)cc1	–	–	6.6%	–	> 10 µM
Cc1ccccc1NC(=O)c1nnc(C(=O)Nc2ccc(OCC(=O)O)cc2)s1	–	–	6.6%	–	> 10 µM
CCOC(=O)c1ccc(NC(=O)c2nnc(C(=O)Nc3ccc(OCC(=O)O)cc3)s2)cc1	–	–	9.4%	–	> 10 µM
Cc1cccc(NC(=O)c2nnc(C(=O)Nc3ccc(OCC(=O)O)cc3)s2)c1C	–	–	6.6%	–	> 10 µM
O=C(O)COc1ccc(NC(=O)c2nnc(C(=O)Nc3ccc(Cl)cc3)s2)cc1	–	–	4.2%	–	> 10 µM
Cc1cccc(NC(=O)c2nnc(C(=O)Nc3ccc(OCC(=O)O)cc3)s2)c1	–	–	6%	–	> 10 µM
Cc1nnc(NC(=O)c2nnc(C(=O)Nc3ccc(OCC(=O)O)cc3)s2)s1	–	–	9.8%	–	> 10 µM
CCOC(=O)c1cccc(NC(=O)c2nnc(C(=O)Nc3ccc(OCC(=O)O)cc3)s2)c1	–	–	6.4%	–	> 10 µM
COc1cccc(NC(=O)c2nnc(C(=O)Nc3ccc(OCC(=O)O)cc3)s2)c1	–	–	9.2%	–	> 10 µM
O=C(O)COc1ccc(NC(=O)c2nnc(C(=O)Nc3ccccc3)s2)cc1	–	–	7.8%	–	> 10 µM
O=C(O)COc1ccc(NC(=O)c2nnc(C(=O)Nc3ccc(F)cc3)s2)cc1	–	–	6%	–	> 10 µM
Cc1ccc(NC(=O)c2nnc(C(=O)Nc3ccc(OCC(=O)O)cc3)s2)cc1C	–	–	2.8%	–	> 10 µM
O=C(O)COc1ccc(NC(=O)c2nnc(C(=O)Nc3ccc(F)c(F)c3)s2)cc1	–	–	6.6%	–	> 10 µM
COc1ccc(C)cc1NC(=O)c1nnc(C(=O)Nc2ccc(OCC(=O)O)cc2)s1	–	–	6.6%	–	> 10 µM
Cc1ccc(NC(=O)c2nnc(C(=O)Nc3ccc(OCC(=O)O)cc3)s2)cc1	–	–	7%	–	> 10 µM

Now from value to compound:

Activity [1]	Activity [2]	Activity [3]	Activity [4]	EC50 [5]	SMILES
inactive	inactive	88.2%	inactive	1.53 µM	Cc1ccc(C)c(OCc2nnc(C(=O)Nc3ccc(CCC(=O)O)cc3)s2)c1
–	–	6%	–	> 10 µM	O=C(O)COc1ccc(NC(=O)c2nnc(C(=O)Nc3ccccc3F)s2)cc1
inactive	inactive	72.5%	inactive	2.43 µM	COc1ccc(OCc2nnc(C(=O)Nc3ccc(CCC(=O)O)cc3)s2)cc1
inactive	inactive	74.4%	inactive	1.17 µM	CCc1ccc(OCc2nnc(C(=O)Nc3ccc(CCC(=O)O)cc3)s2)cc1
inactive	inactive	68.6%	inactive	1.02 µM	O=C(O)CCc1ccc(NC(=O)c2nnc(CC(c3ccccc3)c3ccccc3F)s2)cc1 (centres undefined)
inactive	inactive	91.2%	inactive	1.38 µM	O=C(O)CCc1ccc(NC(=O)c2nnc(COc3ccc4c(c3)CCC4)s2)cc1
inactive	inactive	64.9%	inactive	1.13 µM	Cc1ccc(OCc2nnc(C(=O)Nc3ccc(CCC(=O)O)cc3)s2)cc1C
inactive	inactive	76.9%	inactive	2.17 µM	Cc1ccc(OCc2nnc(C(=O)Nc3ccc(CCC(=O)O)cc3)s2)cc1
inactive	inactive	89.9%	inactive	1.52 µM	Cc1ccccc1OCc1nnc(C(=O)Nc2ccc(CCC(=O)O)cc2)s1
inactive	inactive	79.4%	inactive	2.39 µM	O=C(O)CCc1ccc(NC(=O)c2nnc(Cc3cccc(Cl)c3)s2)cc1
inactive	inactive	84.9%	inactive	2.71 µM	O=C(O)CCc1ccc(NC(=O)c2nnc(CC(c3ccccc3)c3ccc(Cl)cc3)s2)cc1 (centres undefined)
inactive	inactive	70.1%	inactive	3.67 µM	O=C(O)CCc1ccc(NC(=O)c2nnc(Cc3ccccc3)s2)cc1
inactive	inactive	60.3%	inactive	5.02 µM	O=C(O)CCc1ccc(NC(=O)c2nnc(Cc3cccc(F)c3)s2)cc1
inactive	inactive	70.1%	inactive	3.09 µM	O=C(O)CCc1ccc(NC(=O)c2nnc(COc3cccc(C(F)(F)F)c3)s2)cc1
inactive	inactive	72.3%	inactive	2.39 µM	O=C(O)CCc1ccc(NC(=O)c2nnc(Cc3ccc(Cl)cc3)s2)cc1
inactive	inactive	60.3%	inactive	4.12 µM	O=C(O)CCc1ccc(NC(=O)c2nnc(CC(c3ccccc3)c3ccc4c(c3)OCO4)s2)cc1 (centres undefined)
inactive	inactive	82.9%	inactive	1.57 µM	O=C(O)CCc1ccc(NC(=O)c2nnc(COc3cccc(Cl)c3)s2)cc1
inactive	inactive	74.7%	inactive	2.54 µM	Cc1ccc(OCc2nnc(C(=O)Nc3ccc(CCC(=O)O)cc3)s2)c(C)c1
inactive	inactive	48.5%	inactive	5.39 µM	O=C(O)CCc1ccc(NC(=O)c2nnc(COc3ccc(F)cc3)s2)cc1
inactive	inactive	78.9%	inactive	1.35 µM	COc1ccc(C(Cc2nnc(C(=O)Nc3ccc(CCC(=O)O)cc3)s2)c2ccccc2)cc1 (centres undefined)
inactive	inactive	82.4%	inactive	3.26 µM	Cc1cccc(OCc2nnc(C(=O)Nc3ccc(CCC(=O)O)cc3)s2)c1
